# Measurements taken from patent publication US7371225B2, “Method for convection enhanced delivery of therapeutic agents” (The United States of America as represented by the …, priority 2002, dated 2008).
# Read-outs that look alike come from different tables or passages of the source.
# Experiments:
# cerebral white matter [1] = test: CED of iopamidol in cerebral white matter with real-time CT-imaging; assay type: in vivo, primates (Macaca mulatta)
# Description: (§1) Four primates (Macaca mulatta) underwent CED of various volumes (total volume of 90 to 150 μl) of iopamidol (777 Da) in the cerebral white matter combined with CT-imaging during and after infusion (up to 5 days post-infusion), as well as quantitative autoradiography (QAR). Clinical observation (≦20 weeks) and histopathology were used to evaluate safety and toxicity.
# cerebral white matter [2] = details: in vivo
# Description: as §1
# putamen = tested on: putamen; parameters: species or system rhesus monkeys; details: rhesus monkey, in vivo
# Description: Anesthesia was induced with ketamine (10 mg/kg), xylazine (0.5 mg/kg), and thiopental sodium (1 mg/kg). The animals were secured in a monkey stereotactic frame (Kopf Instruments, Tujunga, Calif.). A Hamilton 32-gauge metal blunt tip needle connected to a 250 μl Hamilton syringe (Thompson Instruments, Chantilly, Va.) was stereotactically inserted in the center of the right putamen (anteroposterior 15.5 mm, mediolateral 12 mm and dorsoventral 24.5 mm relative to the tympanic canals and the mid-sagittal sinus)^15. After a delay of 90 minutes, the infusion was begun at 1.0 μl/min.
# For CT, 130 μl, 200 μl and 235 μl of the tracer IPA-BSA/^14C-BSA mixture (35-55 Iopanoic Acid/BSA, 61.3-80.4 mg/ml ^14C-BSA) was infused. […]
# CT and MRI images were analyzed in the MEDx software package (Sensor Systems, Inc., Sterling, Va.) running on a Sun workstation (Sun Microsystems, Inc., Palo Alto, Calif.). […] These were measured by volume segmentation using two different thresholds. Vd(1) was calculated as the volumes of distribution from CT and MRI containing at least 10% of the total increase in signal intensity due to the addition of contrast agent. A rectangular region of interest (ROI) over the infusion area was defined and in the corresponding site in the contralateral hemisphere, and the perfused maximal signal intensity (peak) and the unperfused maximal signal intensity (background) was measured. […]
# [3] = tested on: sympathetic ganglia explants; details: cited from earlier work
# [4] = in vivo; cited from earlier work
molecule,measurement,setting,value
C[C@H](O)C(=O)Nc1c(I)c(C(=O)NC(CO)CO)c(I)c(C(=O)NC(CO)CO)c1I [iopamidol],Distribution of infusate identifiable post-infusion up to,cerebral white matter [1]; CT-imaging,up to 72 hours
same,Homogeneity of distribution of infusate,cerebral white matter [1]; CT-imaging,homogeneous
same,"Overall Vd:Vi ratio, mean±S.D.","cerebral white matter [1]; real-time CT-imaging, total volume 90 to 150 μl",4.1±0.7
same,Clinical or histopathologic evidence of toxicity,cerebral white matter [2],None of the animals had clinical or histopathologic evidence of toxicity
"IPA-BSA: Iopanoic acid conjugated to BSA, surrogate tracer for CT",Mean Vd(1),putamen,3.44±0.74
same,Mean Vd(2),putamen,4.51±1.31
CCC(Cc1c(I)cc(I)c(N)c1I)C(=O)[O-].[Na+] (centres unmarked) [sodium iopanoate],Toxicity in tissue culture,[3]; 0.1 mM,vacuolization of fibroblasts
same,Toxicity in tissue culture,[3]; 1 mM,immediate death of sympathetic ganglia explants
CCC(Cc1c(I)cc(I)c(N)c1I)C(=O)O (centres unmarked) [iopanoic acid],Toxicity in tissue culture,[3]; 0.01 mM,No toxicity
same,Neurotoxicity in the clinical setting,[4],not to be neurotoxic
same,Side effects when used for imaging the gallbladder,[4],"rare side effects (acute renal insufficiency, acute thrombocytompenia)"
